Data on one molecule can be found in PMC12153338, “Resistance to oxyimino-cephalosporins conferred by an alternative mechanism of hydrolysis by the Acinetobacter-derived cephalosporinase-33 (ADC-33), a class C β-lactamase present in carbapenem-resistant Acinetobacter baumannii (CRAb)” (mBio, 2025).

Broadly, the MIC is the lowest concentration found to suppress growth. A lower MIC goes with a more susceptible organism. The term Ki denotes a measure of affinity in units of concentration, obtained from inhibition or displacement. Higher therefore signals lower affinity. One may read the kcat as the number of substrate molecules converted per active site and unit of time at saturation.

The test system of assay [1] is ADC-217 in DH10B Escherichia coli. Kind of assay: MIC by broth microdilution, ADC-217 in DH10B E. coli. In kind it is cell-based. The conditions noted are these: DH10B E. coli expressing ADC-217 (non-Adup) from pBCSK−, FDC in iron-depleted cation-adjusted MH broth, mode of triplicate. On the procedure: (§1) Susceptibility testing to standard antibiotics was performed by broth microdilution according to 2024 Clinical and Laboratory Standards Institute (CLSI) guidelines ([38]). MICs for FDC were done in iron-depleted cation-adjusted Mueller-Hinton (MH) broth according to CLSI methods. All MICs were interpreted according to the 2024 CLSI guidelines ([38]). MICs are done in triplicate, and the mode MIC value is reported.
(§2) blaADC-7 pBCSK− was cloned and expressed in E. coli DH10B cells as previously described for MIC determinations ([3]). The pBCSK-non-inducible phagemid vector has a chloramphenicol resistance gene used to aid selection. All other blaADC variants were synthesized by GenScript according to the blaADC-7 pBCSK− strategy, cloning into the XbaI/BamHI sites of the pBCSK− vector ([5]).

Assay [2] concerns the target T1, ADC-33 (Acinetobacter baumannii, UniProt A7Y407). The assay can be described thus: Thermal denaturation by circular dichroism, ADC-33. The format is binding. To be noted: ADC-33 12 µM, 1 mM antibiotic, PBS pH 7.4. The protocol:
(§3) For thermal denaturation, protein samples were monitored for helical content by circular dichroism in the far-UV region at 210 and 220 nm using a Jasco J-815 spectrometer (Easton, MD) with a Peltier-effect temperature controller, as previously described ([41]). Enzyme concentrations were 12 µM in phosphate-buffered saline (PBS) pH 7.4. The thermodynamic stability of apoADC-30 and ADC-33, and with 1 mM FDC and CAZ, was determined from equilibrium unfolding curves. With the assumption of a reversible two-state transition, we determined the Tm at the midpoint of equilibrium folding. Thermal denaturation experiments were done in duplicate under the same conditions, with each data point representing the average of three successive scans, and the Tm values are consistent with ±1°C variation.
On the technique in general: Circular dichroism is the unequal absorption of left and right circularly polarised light.

In another assay the target is ADC-172 (Acinetobacter baumannii, UniProt A7Y407, N321K). The assay can be described thus: Competition kinetics with nitrocefin (Ki), ADC-172. In kind it is biochemical. To be noted: 3 min pre-incubation, Cheng-Prusoff corrected. On the procedure: (§4) For inhibition kinetics, utilizing NCF as a colorimetric substrate of ADCs, the inhibition constant (Ki) of CAZ and FDC with ADCs was determined using competition kinetics as previously described ([5]). After a 3 min pre-incubation of the enzyme (2 nM) with increasing concentration of the inhibitor, measurements of the initial velocities were performed with the addition of 100–200 µM NCF (twofold of the experimentally determined KM value). To determine the average velocities (v0), data from three experiments were fit to the followingequation: […]
(§5) where vu represents the NCF uninhibited velocity and IC50 represents the inhibitor concentration that results in a 50% reduction of vu. The Ki value was corrected for the NCF affinity (KM values for each ADC) with the Cheng-Prusoff ([5]) equation: […]
(§6) The standard error for Ki values was generated by factoring in the larger of the proportional standard errors for the individual IC50 value and the KM -NCF value.

The target in assay [3] is T1, ADC-33. To be noted: hydrolysis by ADC-33; previously determined; cited from earlier work.
Assay [4] concerns ADC-7 in DH10B Escherichia coli. The assay can be described thus: MIC by broth microdilution, ADC-7 in DH10B E. coli. The conditions noted are these: DH10B E. coli expressing ADC-7 (non-Adup) from pBCSK−, FDC in iron-depleted cation-adjusted MH broth, mode of triplicate. In kind it is cell-based. The protocol:
as §1, §2

A further assay addresses ADC-217 (Acinetobacter baumannii, UniProt Q6DRA1, V286E, form not given). The assay can be described thus: Competition kinetics with nitrocefin (Ki), ADC-217. The format is biochemical. To be noted: 3 min pre-incubation, Cheng-Prusoff corrected. The protocol:
as §4, §5, §6

The subject of assay [5] is ADC-73 in DH10B Escherichia coli. Kind of assay: MIC by broth microdilution, ADC-73 in DH10B E. coli. The conditions noted are these: DH10B E. coli expressing ADC-73 (non-Adup) from pBCSK−, FDC in iron-depleted cation-adjusted MH broth, mode of triplicate. The format is cell-based. The protocol: as §1, §2
In assay [6] the test system is ADC-33 in DH10B Escherichia coli. The assay can be described thus: MIC by broth microdilution, ADC-33 in DH10B E. coli. The format is cell-based. To be noted: DH10B E. coli expressing ADC-33 (Adup) from pBCSK−, FDC in iron-depleted cation-adjusted MH broth, mode of triplicate. The protocol:
as §1, §2
On the technique in general: Dilution methods test growth across graded concentrations, often in twofold steps.

Another assay addresses ADC-30 (Acinetobacter baumannii, UniProt A7XM81). The assay can be described thus: Thermal denaturation by circular dichroism, ADC-30. In kind it is binding. The conditions noted are these: ADC-30 12 µM, 1 mM antibiotic, PBS pH 7.4. The protocol:
as §3

Assay [7] relates to ADC variants in DH10B Escherichia coli. The assay can be described thus: MIC, statements across ADC variants in E. coli. In kind it is cell-based. On the procedure:
as §1, §2

Another assay has as its target ADC-73 (Acinetobacter baumannii, UniProt A0A059ZDI2). Kind of assay: Competition kinetics with nitrocefin (Ki), ADC-73. The format is biochemical. The conditions noted are these: 3 min pre-incubation, Cheng-Prusoff corrected. On the procedure:
as §4, §5, §6

The next assay relates to DH10B alone. Kind of assay: MIC by broth microdilution, DH10B alone. The format is cell-based. To be noted: Escherichia coli; DH10B alone (control strain); FDC in iron-depleted cation-adjusted MH broth. On the procedure:
as §1, §2

Assay [8] relates to ADC-143 in DH10B Escherichia coli. The assay can be described thus: MIC by broth microdilution, ADC-143 in DH10B E. coli. To be noted: DH10B E. coli expressing ADC-143 (non-Adup) from pBCSK−, FDC in iron-depleted cation-adjusted MH broth, mode of triplicate. In kind it is cell-based. The protocol:
as §1, §2

≈ marks a conversion by molar mass, not a printed value.

In the case of `CC(C)(O/N=C(\C(=O)N[C@@H]1C(=O)N2C(C(=O)[O-])=C(C[n+]3ccccc3)CS[C@H]12)c1csc(N)n1)C(=O)O` [CAZ, ceftazidime], the MIC in assay [1] was 128 µg/mL (≈ 234 µM); in assay [4], 64 µg/mL (≈ 117 µM); in [5], 64 µg/mL (≈ 117 µM); in [6], 1020 µg/mL (≈ 1870 µM); in [7], at least 1020 µg/mL; in the assay with DH10B alone it was 0.5 µg/mL (≈ 0.915 µM). This molecule also returned an MIC in assay [8] of 256 µg/mL (≈ 468 µM). Besides, the “change of Tm of the β-lactamase on addition of antibiotic” value on ADC-33 [2] and at ADC-30 was “does not alter the Tm” in each case. Moreover, the Ki was 12.7 ± 1.45 µM on ADC-172, 0.26 ± 0.014 µM at ADC-217 and 8.72 ± 0.74 µM on ADC-73. For the same molecule, the kcat at ADC-33 [3] was 3.71 s⁻¹.
